# Structures can show the parent of a compound that is named as a salt.
# Target: T1, cyclooxygenase (Rattus norvegicus, UniProt Q63921)
# T1 construct: from tissue; host or cells: platelets in platelet-rich plasma from rat abdominal aorta blood (Jcl:wistar, male)
# T1 sequence (Q63921 27-602): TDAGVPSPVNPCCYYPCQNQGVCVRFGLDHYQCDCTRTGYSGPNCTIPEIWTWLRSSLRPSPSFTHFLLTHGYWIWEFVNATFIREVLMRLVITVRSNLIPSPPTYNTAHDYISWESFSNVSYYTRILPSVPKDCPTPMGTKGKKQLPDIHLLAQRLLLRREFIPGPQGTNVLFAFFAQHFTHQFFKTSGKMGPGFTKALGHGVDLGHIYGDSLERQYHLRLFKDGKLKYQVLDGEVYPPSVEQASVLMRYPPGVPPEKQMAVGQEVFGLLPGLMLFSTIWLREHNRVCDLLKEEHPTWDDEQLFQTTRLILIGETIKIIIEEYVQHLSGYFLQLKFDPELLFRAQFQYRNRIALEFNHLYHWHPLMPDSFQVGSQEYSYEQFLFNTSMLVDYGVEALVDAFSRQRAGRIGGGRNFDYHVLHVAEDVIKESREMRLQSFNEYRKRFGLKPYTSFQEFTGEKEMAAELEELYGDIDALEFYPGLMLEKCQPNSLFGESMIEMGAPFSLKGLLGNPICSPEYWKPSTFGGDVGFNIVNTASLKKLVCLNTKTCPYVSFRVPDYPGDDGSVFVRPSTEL
# Assay: Cyclooxygenase inhibitory activity (HHT formation from arachidonic acid in rat platelet-rich plasma)
# Assay type: cell-based, rat (Jcl:wistar)
# Details: not given
row,SMILES,IC50
1,"O=C(NCCCSc1ccncc1)c1ccncc1 [Example 43, 4-[3-(4-picolynoylamino)propylthio]pyridine]",13 µM
2,"Cc1ccc(C(=O)NCCCSc2ccncc2)s1 [Example 59, 4-[3-(5-methylthenoylamino)propylthio]pyridine]",3.5 µM
3,CC(=O)N(CCCSc1ccncc1)Cc1cccs1 [Example 90],4.9 µM
4,"O=C(NCCCCSc1ccncc1)c1cccs1 [Example 129, 4-[4-(2-thenonylamino)butylthio]pyridine]",2.5 µM
5,"O=C1c2ccccc2CN1CCCCOc1ccncc1 [Example 156, 4-[4-(isoindolin-1-on-2-yl)butyloxy]pyridine]",2.9 µM
6,"O=C(NCCCSc1ccncc1)c1cc(Br)c(Br)s1 [Example 58, 4-[3-(4,5-dibromothenoylamino)propylthio]pyridine]",7.9 µM
7,"O=C1c2ccccc2C(O)N1CCCSc1ccncc1 (stereo not drawn) [Example 110, 4-[3-(3-hydroxyisoindolin-1-on-2-yl)propylthio]pyridine]",11 µM
8,"COc1cc(OC)cc(C(=O)NCCCSc2ccncc2)c1 [Example 33, 4-[3-(3,5-dimethoxybenzoylamino)propylthio]pyridine]",2.8 µM
9,"CNC(=O)c1ccccc1C(=O)NCSc1ccncc1 [Example 112, 4-[(2-methylcarbamoylbenzoyl)aminomethylthio]pyridine]",13 µM
10,"Cc1ccc(C(=O)NCCCSc2ccncc2)cc1 [Example 31, 4-[3-(4-methylbenzoylamino)propylthio]pyridine]",4.6 µM
11,"O=C(/C=C/c1ccccc1)NCCCSc1ccncc1 [Example 28, 4-[3-(cinnamoylamino)propylthio]pyridine hydrochloride]",5.6 µM
12,"O=C(NCCCOc1ccncc1)c1ccccc1CO [Example 100, 4-[3-(2-hydroxymethylbenzoyl)aminopropyloxy]pyridine]",8 µM
13,"O=C1c2ccccc2C(O)N1CCSc1ccncc1 (stereo not drawn) [Example 104, 4-[2-(3-hydroxyisoindolin-1-on-2-yl)ethylthio]pyridine]",7.7 µM
14,"O=C(Cc1cccs1)NCCCSc1ccncc1 [Example 55, 4-[3-(2-thienylacetylamino)propylthio]pyridine]",8.7 µM

# Tested on: ART (antigen-responding T-cell)
# Assay: In vitro ART (antigen-responding T-cell) proliferation test
# Assay type: cell-based, Lewis rat
# Details: 1 μM; hydrochloride
row,SMILES,% Inhibition of ART growth
1,"O=C(c1ccccc1)N(CCOc1ccncc1)Cc1ccccc1 [Example 118, 4-[2-(N-benzyl-N-benzoyl)aminoethyloxy]pyridine hydrochloride]",8%

# Same assay, conditions: 10 μM; hydrochloride
row,SMILES,% Inhibition of ART growth
1,"O=C(c1ccccc1)N(CCOc1ccncc1)Cc1ccccc1 [Example 118, 4-[2-(N-benzyl-N-benzoyl)aminoethyloxy]pyridine hydrochloride]",38%

# Same assay, conditions: Rattus norvegicus, T-cell, 1 μM; read-out: % Inhibition of ART growth
row,SMILES,inhibition at 1 µM
1,"CC(C)(CSc1ccncc1)CN1C(=O)c2ccccc2C1=O [Example 145, 4-(2,2-dimethyl-3-phthalimidopropylthio)pyridine]",17%
2,CC(=O)N(CCCSc1ccncc1)Cc1cccs1 [Example 90],34%
3,"O=C1c2ccccc2C(O)N1CSc1ccncc1 (stereo not drawn) [Example 97, 4-(3-hydroxyisoindolin-1-on-2-ylmethylthio)pyridine]",30%
4,"O=C1c2ccccc2C(O)N1CCCSc1ccncc1 (stereo not drawn) [Example 110, 4-[3-(3-hydroxyisoindolin-1-on-2-yl)propylthio]pyridine]",-21%
5,"COc1cc(OC)cc(C(=O)NCCCSc2ccncc2)c1 [Example 33, 4-[3-(3,5-dimethoxybenzoylamino)propylthio]pyridine]",33%
6,"Cl.O=C1c2ccccc2C(=O)N1COc1ccncc1 [Example 116, 4-phthalimidomethyloxypyridine hydrochloride]",10%
7,"O=C(NCCCOc1ccncc1)c1ccccc1CO [Example 100, 4-[3-(2-hydroxymethylbenzoyl)aminopropyloxy]pyridine]",19%

# Same assay, conditions: Rattus norvegicus, T-cell, 10 μM; read-out: % Inhibition of ART growth
row,SMILES,inhibition at 10 µM
1,"CC(C)(CSc1ccncc1)CN1C(=O)c2ccccc2C1=O [Example 145, 4-(2,2-dimethyl-3-phthalimidopropylthio)pyridine]",-42%
2,CC(=O)N(CCCSc1ccncc1)Cc1cccs1 [Example 90],49%
3,"O=C1c2ccccc2C(O)N1CSc1ccncc1 (stereo not drawn) [Example 97, 4-(3-hydroxyisoindolin-1-on-2-ylmethylthio)pyridine]",31%
4,"O=C1c2ccccc2C(O)N1CCCSc1ccncc1 (stereo not drawn) [Example 110, 4-[3-(3-hydroxyisoindolin-1-on-2-yl)propylthio]pyridine]",1%
5,"COc1cc(OC)cc(C(=O)NCCCSc2ccncc2)c1 [Example 33, 4-[3-(3,5-dimethoxybenzoylamino)propylthio]pyridine]",46%
6,"O=C1CSC(=S)N1CCCCSc1ccncc1 [Example 163, 4-(4-rhodaninebutylthio)pyridine]",99%
7,"Cl.O=C1c2ccccc2C(=O)N1COc1ccncc1 [Example 116, 4-phthalimidomethyloxypyridine hydrochloride]",31%
8,"O=C(NCCCOc1ccncc1)c1ccccc1CO [Example 100, 4-[3-(2-hydroxymethylbenzoyl)aminopropyloxy]pyridine]",32%

# Tested on: Rat carrageenin pedal edema
# Assay: Rat carrageenin pedal edema inhibitory activity
# Assay type: in vivo, rat (Jcl: SD)
# Details: 50 mg/kg, orally, 3 hours after carrageenin
# Description: Rat Carrageenin Pedal Edema Inhibitory Activity A Jcl: SD male rat (6 weeks old, weight 160-220 g) was used. After the mesurement of the volume of the dexter hind limb foot pad, a test compound suspended in 5% gum arabic solution was administered orally. Immediately after the administration, water was further administered orally so that the total administration volume of liquid became 5 ml/rat. After one hour, 0.05 ml of 1% carrageenin suspension in physiological saline was injected subcutaneously in the foot pad to induce edema [Winter, […]. and Nuss, G. W.: Proc. Soc. exp. […] Three hours after injection of carrageenin, the volume of the dexter limb was measured, and the edema volume was calculated by the difference between the volume after injection and the volume prior to injection.
row,SMILES,Inhibitory percentage (carrageenin pedal edema)
1,"Cl.O=C1c2ccccc2C(=O)N1COc1ccncc1 [Example 116, 4-phthalimidomethyloxypyridine hydrochloride]",45%

# Same assay, conditions: Rattus norvegicus, po, 3 h, 50 mg/kg, orally, 3 hours after carrageenin; read-out: Inhibitory percentage (carrageenin pedal edema)
row,SMILES,inhibition in vivo at 50 mg/kg
1,"O=C1c2ccccc2C(=O)N1CSc1cccnc1 [Example 63, 3-(phthalimidomethylthio)pyridine]",34%
2,"Cl.Cl.O=C(NCCCOc1ccncc1)c1ccccn1 [Example 126, 4-[3-(2-picolinoylamino)propyloxy]pyridine dihydrochloride]",30%
3,"O=C1c2ccccc2C(=O)N1CCCCOc1ccncc1 [Example 114, 4-(4-phthalimidobutyloxy)pyridine hydrochloride]",28%
4,"O=C(NCCCSc1ccncc1)c1ccncc1 [Example 43, 4-[3-(4-picolynoylamino)propylthio]pyridine]",24%
5,"O=C(N(CCCSc1ccncc1)Cc1cccs1)C(F)(F)F [Example 68, 4-[3-[N-(2-thienylmethyl)-N-trifluoroacetylamino]propylthio]pyridine hydrochloride]",23%
6,"CC(C)(CSc1ccncc1)CN1C(=O)c2ccccc2C1=O [Example 145, 4-(2,2-dimethyl-3-phthalimidopropylthio)pyridine]",22%
7,"Cc1ccc(C(=O)NCCCSc2ccncc2)s1 [Example 59, 4-[3-(5-methylthenoylamino)propylthio]pyridine]",35%
8,CC(=O)N(CCCSc1ccncc1)Cc1cccs1 [Example 90],21%
9,"O=C(NCCCCSc1ccncc1)c1cccs1 [Example 129, 4-[4-(2-thenonylamino)butylthio]pyridine]",34%
10,"O=C(c1ccccc1)N(CCOc1ccncc1)Cc1ccccc1 [Example 118, 4-[2-(N-benzyl-N-benzoyl)aminoethyloxy]pyridine hydrochloride]",31%
11,"O=C1c2ccccc2CN1CCCCOc1ccncc1 [Example 156, 4-[4-(isoindolin-1-on-2-yl)butyloxy]pyridine]",32%
12,"O=C(NCCCSc1ccncc1)c1cc(Br)c(Br)s1 [Example 58, 4-[3-(4,5-dibromothenoylamino)propylthio]pyridine]",48%
13,"O=C1c2ccccc2C(O)N1CSc1ccncc1 (stereo not drawn) [Example 97, 4-(3-hydroxyisoindolin-1-on-2-ylmethylthio)pyridine]",29%
14,"O=C1c2ccccc2C(O)N1CCCSc1ccncc1 (stereo not drawn) [Example 110, 4-[3-(3-hydroxyisoindolin-1-on-2-yl)propylthio]pyridine]",44%
15,"COc1cc(OC)cc(C(=O)NCCCSc2ccncc2)c1 [Example 33, 4-[3-(3,5-dimethoxybenzoylamino)propylthio]pyridine]",37%
16,"O=C1CSC(=S)N1CCCCSc1ccncc1 [Example 163, 4-(4-rhodaninebutylthio)pyridine]",29%
17,"CNC(=O)c1ccccc1C(=O)NCSc1ccncc1 [Example 112, 4-[(2-methylcarbamoylbenzoyl)aminomethylthio]pyridine]",42%
18,"Cc1ccc(C(=O)NCCCSc2ccncc2)cc1 [Example 31, 4-[3-(4-methylbenzoylamino)propylthio]pyridine]",32%
19,"O=C(/C=C/c1ccccc1)NCCCSc1ccncc1 [Example 28, 4-[3-(cinnamoylamino)propylthio]pyridine hydrochloride]",25%
20,"O=C(NCCCOc1ccncc1)c1ccccc1CO [Example 100, 4-[3-(2-hydroxymethylbenzoyl)aminopropyloxy]pyridine]",22%
21,"O=C1c2ccccc2C(O)N1CCSc1ccncc1 (stereo not drawn) [Example 104, 4-[2-(3-hydroxyisoindolin-1-on-2-yl)ethylthio]pyridine]",21%
22,"O=C(NCSc1ccncc1)c1cccnc1 [Example 138, 4-(3-picolinoylaminomethylthio)pyridine]",25%
23,"O=C(Cc1cccs1)NCCCSc1ccncc1 [Example 55, 4-[3-(2-thienylacetylamino)propylthio]pyridine]",41%
24,"O=C(NCCCSc1ccccn1)c1cccs1 [Example 47, 2-[3-(thenoylamino)propylthio]pyridine]",25%
25,"Cl.O=C1c2ccccc2C(=O)N1CCCOc1ccncc1 [Example 113, 4-(3-phthalimidopropyloxy)pyridine hydrochloride]",35%

# Tested on: Mouse phenylquinone writhing
# Assay: Mouse phenylquinone writhing inhibitory activity
# Assay type: in vivo, mouse (Slc: ICR)
# Details: Mus musculus, po, 20 min, 50 mg/kg, orally; read-out: Inhibitory percentage (phenylquinone writhing)
# Description: Mouse Phenylquinone Writhing Inhibitory Activity A Slc: ICR male mouse (4 weeks, weight 17 to 24 g) was used. A test compound suspended in 5% gum arabic solution was administered orally. After 30 minutes, 0.1 ml/10 g body weight of 0.02% phenylquinone solution in water (dissolved by the aid of 5% ethanol) was injected intraperitoneally, and writhing and stretching responses of individual animals were measured for 20 minutes [Siegmund, E., Cadmus, R. and Lu, G.; Proc. Soc. exp. Biol. Med. 95, (1957)].
row,SMILES,inhibition in vivo at 50 mg/kg
1,"O=C1c2ccccc2C(=O)N1CSc1cccnc1 [Example 63, 3-(phthalimidomethylthio)pyridine]",56%
2,"O=C(NCCCSc1ccncc1)c1ccncc1 [Example 43, 4-[3-(4-picolynoylamino)propylthio]pyridine]",48%
3,"O=C(N(CCCSc1ccncc1)Cc1cccs1)C(F)(F)F [Example 68, 4-[3-[N-(2-thienylmethyl)-N-trifluoroacetylamino]propylthio]pyridine hydrochloride]",50%
4,"Cc1ccc(C(=O)NCCCSc2ccncc2)s1 [Example 59, 4-[3-(5-methylthenoylamino)propylthio]pyridine]",49%
5,CC(=O)N(CCCSc1ccncc1)Cc1cccs1 [Example 90],53%
6,"O=C(NCCCSc1ccncc1)c1cc(Br)c(Br)s1 [Example 58, 4-[3-(4,5-dibromothenoylamino)propylthio]pyridine]",34%
7,"O=C(Cc1cccs1)NCCCSc1ccncc1 [Example 55, 4-[3-(2-thienylacetylamino)propylthio]pyridine]",58%
8,"O=C(NCCCSc1ccccn1)c1cccs1 [Example 47, 2-[3-(thenoylamino)propylthio]pyridine]",47%

# Tested on: brewer's yeast induced pyrexia
# Assay: Antipyretic activity (brewer's yeast induced pyrexia)
# Assay type: in vivo, rat (DS line)
# Details: 50 mg/kg, orally
# Description: Antipyretic Activity Six male DS line rats, 7 weeks old, weighing 200 to 240 g (Nihon Clea) per one group were used. According to the method of Winder et al. (J. Pharmac. Exp. Ther. 138: 405 (1963)), a suspension of 15% brewer's yeast (Sigma) in physiological saline (1 ml/100 g, b.w.) was injected subcutaneously at 16 hours before measurement of the body temperature to induce pyrexia. After injection of yeast, only water was provided, and each rat was bred separately in a five duplicate cage. At 16, 17 and 18 hours after yeast injection, the rectal temperature was measured by a thermistor thermometer (Takara Kogyo K.K.), and this was taken as the basal body temperature. […] Animals having the body temperature of not lower than 38.5° C. at 18 hours after yeast injection were selected, and a test compound was administered orally (1 ml/100 g, b.w.). As a control, only the solvent was provided. Upon administration, the body temperature of the control group and that of the test compound-administered group were adjusted to the same temperature. The rectal temperature was measured every hour till five hours after administration.
row,SMILES,"Antipyretic activity, peak time"
1,"Cl.Cl.O=C(NCCCOc1ccncc1)c1ccccn1 [Example 126, 4-[3-(2-picolinoylamino)propyloxy]pyridine dihydrochloride]",2 h
2,"CNC(=O)c1ccccc1C(=O)NCSc1ccncc1 [Example 112, 4-[(2-methylcarbamoylbenzoyl)aminomethylthio]pyridine]",3 h
3,"Cl.O=C1c2ccccc2C(=O)N1COc1ccncc1 [Example 116, 4-phthalimidomethyloxypyridine hydrochloride]",3 h
4,"Cl.O=C1c2ccccc2C(=O)N1CCCOc1ccncc1 [Example 113, 4-(3-phthalimidopropyloxy)pyridine hydrochloride]",4 h

# Same assay, conditions: 50 mg/kg, orally, at peak time
row,SMILES,"Antipyretic activity, .increment. °C."
1,"Cl.Cl.O=C(NCCCOc1ccncc1)c1ccccn1 [Example 126, 4-[3-(2-picolinoylamino)propyloxy]pyridine dihydrochloride]",-1.21 °C
2,"CNC(=O)c1ccccc1C(=O)NCSc1ccncc1 [Example 112, 4-[(2-methylcarbamoylbenzoyl)aminomethylthio]pyridine]",-1.58 °C
3,"Cl.O=C1c2ccccc2C(=O)N1COc1ccncc1 [Example 116, 4-phthalimidomethyloxypyridine hydrochloride]",-0.63 °C
4,"Cl.O=C1c2ccccc2C(=O)N1CCCOc1ccncc1 [Example 113, 4-(3-phthalimidopropyloxy)pyridine hydrochloride]",-0.82 °C

# Same assay, conditions: 50 mg/kg, orally, at peak time; hydrochloride
row,SMILES,"Antipyretic activity, .increment. °C."
1,"O=C1c2ccccc2C(=O)N1CCCCOc1ccncc1 [Example 114, 4-(4-phthalimidobutyloxy)pyridine hydrochloride]",-1.14 °C

# Same assay, conditions: 50 mg/kg, orally; hydrochloride
row,SMILES,"Antipyretic activity, peak time"
1,"O=C1c2ccccc2C(=O)N1CCCCOc1ccncc1 [Example 114, 4-(4-phthalimidobutyloxy)pyridine hydrochloride]",4 h

# Source: patent US5457106A, “Pyridine derivatives, their production and use” (Takeda Chemical Industries, Ltd., priority 1991, dated 1995)
